How the values were obtained:
[1] = test system: HCV replicon RNA (GenBank Accession No. AJ242654); assay: HCV Replicon Assay (replicon RNA reduction and/or Fluc reporter signal); type: cell-based, Hepatitis C virus; conditions: Hepatitis C virus, 72 h, replicon-containing cells cultured with test compound for up to 3 days
In short: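 IC50 values mostly reflect the drop in replicon RNA, though Fluc reporter signal may also be used. Compound incubated with cells carrying the bicistronic replicon for as long as 3 days; interferon served as positive control.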

Row | Structure (SMILES) | IC50 [1] [nM] | melting point [°C]
1 | N#Cc1c(-c2ccc(S(=O)(=O)NC3(C(F)(F)F)CC3)cn2)n(C2CCC2)c2ncc(C3CC3)cc12 [Cpd 124, 6-(3-cyano-1-cyclobutyl-5-cyclopropyl-1H-pyrrolo[2,3-b]pyridin-2-yl)-N-[1-(trifluoromethyl)cyclopropyl]pyridine-3-sulfonamide] | < 500 | 163 to 171
2 | CC(C)(C)NS(=O)(=O)c1ccc(-c2c(C#N)c3cc(C4CC4)cnc3n2C2CCC2)cc1 [Cpd 125, N-tert-butyl-4-(3-cyano-1-cyclobutyl-5-cyclopropyl-1H-pyrrolo[2,3-b]pyridin-2-yl)benzenesulfonamide] | < 500 | 210 to 215
3 | CC1(NS(=O)(=O)c2ccc(-c3c(C#N)c4cc(C5CC5)cnc4n3C3CCC3)cc2)CC1 [Cpd 127, 4-(3-cyano-1-cyclobutyl-5-cyclopropyl-1H-pyrrolo[2,3-b]pyridin-2-yl)-N-(1-methylcyclopropyl)benzenesulfonamide] | < 500 | 152 to 161
4 | CC1(NS(=O)(=O)c2ccc(-c3c(C#N)c4cc(C5CC5)cnc4n3C3CCC3)nc2)CC1 [Cpd 128, 6-(3-cyano-1-cyclobutyl-5-cyclopropyl-1H-pyrrolo[2,3-b]pyridin-2-yl)-N-(1-methylcyclopropyl)pyridine-3-sulfonamide] | < 500 | 178 to 185
5 | CC1(NS(=O)(=O)c2cnc(-c3c(C#N)c4cc(C5CC5)cnc4n3C3CCC3)nc2)CC1 [Cpd 129, 2-(3-cyano-1-cyclobutyl-5-cyclopropyl-1H-pyrrolo[2,3-b]pyridin-2-yl)-N-(1-methylcyclopropyl)pyrimidine-5-sulfonamide] | < 500 | 161 to 169
6 | N#Cc1c(-c2ccc(S(=O)(=O)NC(CF)CF)cc2)n(C2CCC2)c2ncc(C3CC3)cc12 [Cpd 130, 4-(3-cyano-1-cyclobutyl-5-cyclopropyl-1H-pyrrolo[2,3-b]pyridin-2-yl)-N-(1,3-difluoropropan-2-yl)benzenesulfonamide] | < 500 | 225 to 230
7 | N#Cc1c(-c2ncc(S(=O)(=O)NC(CF)CF)cn2)n(C2CCC2)c2ncc(C3CC3)cc12 [Cpd 132, 2-(3-cyano-1-cyclobutyl-5-cyclopropyl-1H-pyrrolo[2,3-b]pyridin-2-yl)-N-(1,3-difluoropropan-2-yl)pyrimidine-5-sulfonamide] | < 500 | 189 to 197
8 | N#Cc1c(-c2ccc(S(=O)(=O)NC3CC3)cn2)n(C2CCC2)c2ncc(C3CC3)cc12 [Cpd 133, 6-(3-cyano-1-cyclobutyl-5-cyclopropyl-1H-pyrrolo[2,3-b]pyridin-2-yl)-N-cyclopropylpyridine-3-sulfonamide] | < 500 | 169 to 174
9 | N#Cc1c(-c2ccc(S(=O)(=O)NC3CCC3)cn2)n(C2CCC2)c2ncc(C3CC3)cc12 [Cpd 134, 6-(3-cyano-1-cyclobutyl-5-cyclopropyl-1H-pyrrolo[2,3-b]pyridin-2-yl)-N-cyclobutylpyridine-3-sulfonamide] | < 500 | 189 to 197
10 | CC(C)NS(=O)(=O)c1cnc(-c2c(C#N)c3cc(C4CC4)cnc3n2C2CCC2)nc1 [Cpd 136, 2-(3-cyano-1-cyclobutyl-5-cyclopropyl-1H-pyrrolo[2,3-b]pyridin-2-yl)-N-(propan-2-yl)pyrimidine-5-sulfonamide] | < 500 | 187 to 195
11 | Cc1ccc2c(C#N)c(-c3ncc(S(=O)(=O)N[C@@H](C)C(F)(F)F)cn3)n(C3CCC3)c2n1 [Cpd 137, 2-(3-cyano-1-cyclobutyl-6-methyl-1H-pyrrolo[2,3-b]pyridin-2-yl)-N-[(2S)-1,1,1-trifluoropropan-2-yl]pyrimidine-5-sulfonamide] | < 500 | 207 to 212
12 | Cc1ccc2c(C#N)c(-c3ncc(S(=O)(=O)N[C@H](C)C(F)(F)F)cn3)n(C3CCC3)c2n1 [Cpd 138, 2-(3-cyano-1-cyclobutyl-6-methyl-1H-pyrrolo[2,3-b]pyridin-2-yl)-N-[(2R)-1,1,1-trifluoropropan-2-yl]pyrimidine-5-sulfonamide] | 500 to 2000 | 205 to 209
13 | Cc1ccc2c(C#N)c(-c3ccc(S(=O)(=O)NC4(C(F)(F)F)CC4)cc3)n(C3CCC3)c2n1 [Cpd 140, 4-(3-cyano-1-cyclobutyl-6-methyl-1H-pyrrolo[2,3-b]pyridin-2-yl)-N-[1-(trifluoromethyl)cyclopropyl]benzenesulfonamide] | 500 to 2000 | 205 to 212
14 | Cc1ccc2c(C#N)c(-c3ccc(S(=O)(=O)NC(C)(C)C)cc3)n(C3CCC3)c2n1 [Cpd 141, N-tert-butyl-4-(3-cyano-1-cyclobutyl-6-methyl-1H-pyrrolo[2,3-b]pyridin-2-yl)benzenesulfonamide] | 500 to 2000 | 194 to 200
15 | Cc1ccc2c(C#N)c(-c3ccc(S(=O)(=O)NC(C)(C)C)cn3)n(C3CCC3)c2n1 [Cpd 142, N-tert-butyl-6-(3-cyano-1-cyclobutyl-6-methyl-1H-pyrrolo[2,3-b]pyridin-2-yl)pyridine-3-sulfonamide] | < 500 | 181 to 187
16 | Cc1ccc2c(C#N)c(-c3ccc(S(=O)(=O)NC4(C)CC4)cc3)n(C3CCC3)c2n1 [Cpd 143, 4-(3-cyano-1-cyclobutyl-6-methyl-1H-pyrrolo[2,3-b]pyridin-2-yl)-N-(1-methylcyclopropyl)benzenesulfonamide] | < 500 | 200 to 207
17 | Cc1ccc2c(C#N)c(-c3ncc(S(=O)(=O)NC4(C)CC4)cn3)n(C3CCC3)c2n1 [Cpd 144, 2-(3-cyano-1-cyclobutyl-6-methyl-1H-pyrrolo[2,3-b]pyridin-2-yl)-N-(1-methylcyclopropyl)pyrimidine-5-sulfonamide] | < 500 | 224 to 232
18 | Cc1ccc2c(C#N)c(-c3ccc(S(=O)(=O)NC(CF)CF)cc3)n(C3CCC3)c2n1 [Cpd 145, 4-(3-cyano-1-cyclobutyl-6-methyl-1H-pyrrolo[2,3-b]pyridin-2-yl)-N-(1,3-difluoropropan-2-yl)benzenesulfonamide] | < 500 | 182 to 193
19 | Cc1ccc2c(C#N)c(-c3ccc(S(=O)(=O)NC(CF)CF)cn3)n(C3CCC3)c2n1 [Cpd 146, 6-(3-cyano-1-cyclobutyl-6-methyl-1H-pyrrolo[2,3-b]pyridin-2-yl)-N-(1,3-difluoropropan-2-yl)pyridine-3-sulfonamide] | < 500 | 180 to 188
20 | Cc1ccc2c(C#N)c(-c3ncc(S(=O)(=O)NC(CF)CF)cn3)n(C3CCC3)c2n1 [Cpd 147, 2-(3-cyano-1-cyclobutyl-6-methyl-1H-pyrrolo[2,3-b]pyridin-2-yl)-N-(1,3-difluoropropan-2-yl)pyrimidine-5-sulfonamide] | < 500 | 211 to 217
21 | Cc1ccc2c(C#N)c(-c3ccc(S(=O)(=O)NC4CCC4)cn3)n(C3CCC3)c2n1 [Cpd 148, 6-(3-cyano-1-cyclobutyl-6-methyl-1H-pyrrolo[2,3-b]pyridin-2-yl)-N-cyclobutylpyridine-3-sulfonamide] | < 500 | 151 to 160
22 | C[C@H](NS(=O)(=O)c1ccc(-c2c(C#N)c3ccc(C4CC4)nc3n2C2CCC2)nc1)C(F)(F)F [Cpd 151, 6-(3-cyano-1-cyclobutyl-6-cyclopropyl-1H-pyrrolo[2,3-b]pyridin-2-yl)-N-[(2S)-1,1,1-trifluoropropan-2-yl]pyridine-3-sulfonamide] | < 500 | 170 to 176
23 | C[C@@H](NS(=O)(=O)c1ccc(-c2c(C#N)c3ccc(C4CC4)nc3n2C2CCC2)nc1)C(F)(F)F [Cpd 152, 6-(3-cyano-1-cyclobutyl-6-cyclopropyl-1H-pyrrolo[2,3-b]pyridin-2-yl)-N-[(2R)-1,1,1-trifluoropropan-2-yl]pyridine-3-sulfonamide] | < 500 | 170 to 176
24 | C[C@@H](NS(=O)(=O)c1cnc(-c2c(C#N)c3ccc(C4CC4)nc3n2C2CCC2)nc1)C(F)(F)F [Cpd 154, 2-(3-cyano-1-cyclobutyl-6-cyclopropyl-1H-pyrrolo[2,3-b]pyridin-2-yl)-N-[(2R)-1,1,1-trifluoropropan-2-yl]pyrimidine-5-sulfonamide] | < 500 | 244 to 249
25 | CCc1cnc2c(c1)c(C#N)c(-c1ccc(S(=O)(=O)N[C@@H](C)C(F)(F)F)cc1)n2C1CCC1 [Cpd 155, 4-(3-cyano-1-cyclobutyl-5-ethyl-1H-pyrrolo[2,3-b]pyridin-2-yl)-N-[(2S)-1,1,1-trifluoropropan-2-yl]benzenesulfonamide] | < 500 | 194 to 201
26 | CCc1cnc2c(c1)c(C#N)c(-c1ccc(S(=O)(=O)N[C@H](C)C(F)(F)F)cc1)n2C1CCC1 [Cpd 156, 4-(3-cyano-1-cyclobutyl-5-ethyl-1H-pyrrolo[2,3-b]pyridin-2-yl)-N-[(2R)-1,1,1-trifluoropropan-2-yl]benzenesulfonamide] | 500 to 2000 | 194 to 201
27 | C[C@H](NS(=O)(=O)c1ccc(-c2c(C#N)c3ccc(Cl)nc3n2C2CCC2)nc1)C(F)(F)F [Cpd 161, 6-(6-chloro-3-cyano-1-cyclobutyl-1H-pyrrolo[2,3-b]pyridin-2-yl)-N-[(2S)-1,1,1-trifluoropropan-2-yl]pyridine-3-sulfonamide] | < 500 | 172 to 178
28 | C[C@@H](NS(=O)(=O)c1ccc(-c2c(C#N)c3ccc(Cl)nc3n2C2CCC2)nc1)C(F)(F)F [Cpd 162, 6-(6-chloro-3-cyano-1-cyclobutyl-1H-pyrrolo[2,3-b]pyridin-2-yl)-N-[(2R)-1,1,1-trifluoropropan-2-yl]pyridine-3-sulfonamide] | < 500 | 172 to 178
29 | Cc1ncc2c(C#N)c(-c3ccc(S(=O)(=O)N[C@@H](C)C(F)(F)F)cn3)n(C3CCCC3)c2n1 [Cpd 163, 6-(5-cyano-7-cyclopentyl-2-methyl-7H-pyrrolo[2,3-d]pyrimidin-6-yl)-N-[(2S)-1,1,1-trifluoropropan-2-yl]pyridine-3-sulfonamide] | 500 to 2000 | 212 to 215

Reference: patent US9593108B2, “Compounds and methods for antiviral treatment” (PTC Therapeutics, Inc., priority 2009, dated 2017)
